One assay deals with T1, CB1 receptor (Rattus norvegicus, UniProt P20272).
T1 construct: except whole brain (rather than cortex only) was used; from tissue; host or cells: whole brain P2 membranes
The assay is described as follows: CB1 receptor binding assay, [3H]CP-55,940 displacement, whole brain P2 membranes. The procedure: 1. CB1 Assay. [^3H] […] Displacement curves were generated by incubating drugs with 1 nM of [^3H] CP-55,940. The assays were performed in triplicate, and the results represent the combined data from three individual experiments.
CP-55,940 and all cannabinoid analogs were prepared by suspension in assay buffer from a 1 mg/mL ethanolic stock without evaporation of the ethanol (final concentration of no more than 0.4%). […] Displacement IC50 values were originally determined by unweighted least-squares linear regression of log concentration-percent displacement data and then converted to Ki values using the method of Cheng and Prusoff(Cheng, Y. C.; Prusoff, W. H. Biochem. Pharmacol. 1973, 22, 3099.)

The target of assay [1] is T2, human CB2 receptor (transfected human embryonic kidney 293 cells) (Homo sapiens, UniProt P34972).
T2 construct: expressed in transfected cells
T2 sequence (P34972 whole entry): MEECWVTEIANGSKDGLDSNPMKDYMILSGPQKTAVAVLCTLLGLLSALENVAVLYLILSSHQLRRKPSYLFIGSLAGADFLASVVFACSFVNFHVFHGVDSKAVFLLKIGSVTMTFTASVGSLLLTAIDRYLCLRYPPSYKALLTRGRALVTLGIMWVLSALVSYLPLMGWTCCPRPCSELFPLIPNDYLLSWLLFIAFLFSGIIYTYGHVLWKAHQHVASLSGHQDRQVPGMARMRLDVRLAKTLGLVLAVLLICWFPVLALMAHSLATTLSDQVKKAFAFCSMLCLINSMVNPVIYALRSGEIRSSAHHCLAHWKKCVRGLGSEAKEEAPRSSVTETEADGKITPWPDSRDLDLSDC
The assay is described as follows: CB2 receptor binding assay, [3H]CP-55,940 displacement. Particulars: for Fold selectivity for CB2 over CB1: ratio of CB1 to CB2 affinity. The protocol: 2. CB2 Assay. Human embryonic kidney 293 cells were maintained in Dulbecco's modified Eagle's medium (DMEM) with 10% fetal clone II (HyClone, Logan Utah) and 5% CO2 at 37° C. in a Forma incubator. Cell lines were created by transfection of CB2pcDNA3 into 293 cells by the Lipofectamine reagent (Life Technologies, Gaithersburg, Md.). The human CB2 cDNA was a gift. Stable transformants were selected in growth medium containing geneticin (1 mg/mL, reagent, Life Technologies, Gaithersburg, Md.). Colonies of about 500 cells were picked (about 2 weeks post transfection) and allowed to expand, then tested for expression of receptor mRNA by northern blot analysis. Cell lines containing moderate to high levels of receptor mRNA were tested for receptor binding properties. Transfected cell lines were maintained in DMEM with 10% fetal clone II plus 0.3-0.5 mg/mL geneticin and 5% CO2 at 37° C. in a Forma incubator.
The current assay is a modification of Compton et al. (Compton, D. R.; Rice, K. C.; De Costa, B. R.; Razdan, R. K.; Melvin, L. S.; Johnson, M. R.; Martin, B. R. J. Pharmacol Exp. Ther. 1993, 265, 218.) Cells were harvested in phosphate-buffered saline containing 1 mM EDTA and centrifuged at 500 g. The cell pellet was homogenized in 10 mL of solution A (50 mM Tris-HCl, 320 mM sucrose, 2 mM EDTA, 5 mM MgCl2, pH 7.4). The homogenate was centrifuged at 1,600×g (10 min), the supernatant saved, and the pellet washed three times in solution A with subsequent centrifugation. The combined supernatants were centrifuged at 100,000×g (60 min). The (P2 membrane) pellet was resuspended in 3 mL of buffer B (50 mM Tris-HCl, 1 mM EDTA, 3 mM MgCl2, pH 7.4) to yield a protein concentration of approximately 1 mg/mL. The tissue preparation was divided into equal aliquots, frozen on dry ice, and stored at −70° C. Binding was initiated by the addition of 40-50 μg membrane protein to silanized tubes containing [^3H]CP-55,940 (102.9 Ci/mmol) and a sufficient volume of buffer C (50 mM Tris-HCl, 1 mM EDTA, 3 mM MgCl2, and 5 mg/mL fatty acid free BSA, pH 7.4) to bring the total volume to 0.5 mL. The addition of 1 μM unlabelled CP-55,940 was used to assess nonspecific binding. Following incubation (30° C. for 1 hour), binding was terminated by the addition of 2 mL of ice cold buffer D (50 mM Tris-HCl, pH 7.4, plus 1 mg/mL BSA) and rapid vacuum filtration through Whatman GF/C filters (pretreated with polyethyleneimine (0.1%) for at least 2 hours). Tubes were rinsed with 2 mL of ice cold buffer D, which was also filtered, and the filters subsequently rinsed twice with 4 mL of ice cold buffer D. Before radioactivity was quantitated by liquid scintillation spectrometry, filters were shaken for 1 hr in 5 mL of scintillation fluid.
CP-55,940 and all cannabinoid analogs were prepared by suspension in assay buffer from a 1 mg/mL ethanolic stock without evaporation of the ethanol (final concentration of no more than 0.4%). Competition assays were conducted with 1 nM [^3H]-CP55,940 and 6 concentrations (0.1 nM to 10 μM displacing ligands). Displacement IC50 values were originally determined by unweighted least-squares linear regression of log concentration-percent displacement data and then converted to Ki values using the method of Cheng and Prusoff(Cheng, Y. C.; Prusoff, W. H. Biochem. Pharmacol. 1973, 22, 3099.)

Assay [2] relates to formalin model of inflammatory pain. The assay is described as follows: Formalin model of inflammatory pain. Format: in vivo. Particulars: male ICR mice. The procedure:
One of the above CB2 selective agonists was chosen for testing in the formalin model of inflammatory pain in mice. Subjects consisted of male ICR mice (Harlan Labs) weighing between 20-25 g. The formalin test was carried out in an open Plexiglas cage, with a mirror placed under the floor to allow an unobstructed view of the paws. Mice were allowed to acclimate for 15 min in the test cage before formalin injection. Each animal was injected with 20 μl of 2.5% formalin in the intraplantar region of the right hindpaw. Mice were then observed 0-5 min (Phase 1) and 20-45 min (Phase 2) post-formalin, and the amount of time spent licking the injected paw was recorded. The drug was injected i.p. 30 min before formalin injection.

The next assay concerns the target CB2 receptor (Homo sapiens, UniProt P34972). Particulars: read-out: Ki for the CB2 receptor; Huffman et al., Biorg. Med. Chem. 1999; cited from earlier work.

Molecules are shown by their SMILES. “Also recorded” adds a separate entry of the source.

Broadly, the Ki is a measure of affinity in units of concentration, obtained from inhibition or displacement.

T1 sequence (P20272 whole entry): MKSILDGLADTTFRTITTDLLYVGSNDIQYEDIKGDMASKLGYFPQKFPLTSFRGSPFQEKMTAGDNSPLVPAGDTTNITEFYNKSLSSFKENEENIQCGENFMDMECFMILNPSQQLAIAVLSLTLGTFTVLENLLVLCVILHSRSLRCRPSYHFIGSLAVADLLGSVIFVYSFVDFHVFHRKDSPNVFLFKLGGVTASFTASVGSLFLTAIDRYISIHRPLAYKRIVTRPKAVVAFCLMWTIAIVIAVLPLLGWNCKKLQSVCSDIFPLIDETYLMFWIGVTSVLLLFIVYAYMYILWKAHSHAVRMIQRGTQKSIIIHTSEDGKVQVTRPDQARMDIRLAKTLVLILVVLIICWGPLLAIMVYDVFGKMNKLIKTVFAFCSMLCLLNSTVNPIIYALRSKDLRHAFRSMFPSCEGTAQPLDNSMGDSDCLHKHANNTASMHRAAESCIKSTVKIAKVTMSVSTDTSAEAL
CB2 receptor, sequence (P34972 whole entry): as the sequence (P34972 whole entry) above

At CB1 receptor, `CCCCC(C)(C)c1cc(OC)c2c(c1)OC(C)(C)[C@@H]1CC[C@@H](O)C[C@@H]21` [Compound 299, 1-Deoxy-9β-hydroxy-1-methoxy-3-(1′,1′dimethylpentyl)-11-nor-hexahydrocannabinol] showed a Ki of 415 ± 49.8 nM. Moreover, in assay [1], affinity was put at a Ki of 29.8 ± 1.77 nM and the “Fold selectivity for CB2 over CB1” value is on record as 14 fold.
In the case of `CCCCCC(C)(C)c1cc(OC)c2c(c1)OC(C)(C)[C@@H]1CC[C@H](O)C[C@@H]21` [Compound 349, 9α-Hydroxy-1-methoxy-3-(1′,1′dimethylhexyl)-11-nor-hexahydrocannabinol], the Ki at CB1 receptor was found to be 375.7 ± 0.7 nM; in assay [1] it was 38 ± 4.3 nM. Moreover, the “Fold selectivity for CB2 over CB1” value in assay [1] came out at 10 fold.
The matching figures for `CCC[C@H](C)Cc1ccc2c(c1)OC(C)(C)[C@@H]1CC=C(C)C[C@@H]21` [Compound 255, 1-Deoxy-3-(2′S-methylpentyl)-Δ^8-tetrahydrocannabinol]: 4310 ± 649 nM, 24.3 ± 8.6 nM and 174 fold.
The matching figures for `CCCC(C)(C)c1ccc2c(c1)OC(C)(C)[C@@H]1CC[C@@H](O)C[C@@H]21` [Compound 310, 1-Deoxy-9β-hydroxy-3-(1′,1′dimethylbutyl)-11-nor-hexahydrocannabinol]: 1060 nM, 36.1 ± 2.8 nM and 29 fold.
For the compound `CC[C@H](C)Cc1ccc2c(c1)OC(C)(C)[C@@H]1CC=C(C)C[C@@H]21` [Compound 352, 1-Deoxy-3-(2′S-methylbutyl)-Δ^8-tetrahydrocannabinol], the Ki at CB1 receptor is above 10000 nM. For the same compound, in assay [1], the affinity corresponds to a Ki of 46.5 ± 2.16 nM and the “Fold selectivity for CB2 over CB1” value is 213 fold.
In the same order, the values of `CC[C@@H](C)Cc1ccc2c(c1)OC(C)(C)[C@@H]1CC=C(C)C[C@@H]21` [Compound 353, 1-Deoxy-3-(2′R-methylbutyl)-Δ^8-tetrahydrocannabinol] are 1493 ± 10 nM, 31.3 ± 0.78 nM and 48 fold.
Regarding `CC[C@@H](C)Cc1cc(OC)c2c(c1)OC(C)(C)[C@@H]1CC=C(C)C[C@@H]21` [Compound 359, 1-Methoxy-3-(2′R-methylbutyl)-Δ^8-tetrahydrocannabinol], the affinity on CB1 receptor corresponds to a Ki of 2920 ± 450 nM. In addition, in assay [1], the Ki stood at 13.3 ± 0.15 nM and the “Fold selectivity for CB2 over CB1” value was 219 fold.
Turning to `CCCCCC(C)(C)c1cc(OC)c2c(c1)OC(C)(C)[C@@H]1CC[C@@H](O)C[C@@H]21` [Compound 350, 9β-Hydroxy-1-methoxy-3-(1′,1′dimethylhexyl)-11-nor-hexahydrocannabinol], the Ki on CB1 receptor came to 395 ± 19.8 nM. In assay [1], the Ki was 11.8 ± 1.03 nM and the “Fold selectivity for CB2 over CB1” value was found to be 33 fold. Moreover, in assay [2] (20 mg/kg i.p. 30 min before formalin, listed as JWH-350), the “pain response (time spent licking injected paw)” value is “completely inhibited pain response; also recorded: completely eliminating the pain response”. In addition, the “nociception, dose dependence” value in assay [2] (i.p. 30 min before formalin) is listed as “inhibits nociception in a dose-dependent manner”.
Turning to `CCCCCCC(C)(C)c1ccc2c(c1)OC(C)(C)C1CC=C(C)CC21` (stereo not drawn) [1-deoxy-Δ^8-THC-DMH], on CB2 receptor, the Ki is 3 nM.
